Paper PMC6804443 (Acta Pharmaceutica Sinica. B, 2019)
Starred links: 1 amine or outer side, 2 acyl side, 3 side chain; linkers in the order of their positions; H or OH if unused. Positions of bridges follow the written chain, without caps; N, C: chain ends. Non-standard residues stand in square brackets, D forms with d. Residues, ends and D or L forms follow the SMILES beside them. *: point of attachment. hTyr(3S-OH,4S-OH,3'-OSO3H) = N[C@H](C(=O)O)[C@H](O)[C@@H](O)c1ccc(O)c(OS(=O)(=O)O)c1; Orn(4R-OH,5R-OH) = O=C([C@H](C[C@@H](O)[C@@H](O)N[*:3])N[*:1])[*:2]; Pro(3S-OH,4S-Me) = C[C@H]1CN[C@H](C(=O)O)[C@H]1O; X1 = CCCCCOc1ccc(-c2cc(-c3ccc(C(=O)*)cc3)no2)cc1; Gln(3R-OH) = NC(=O)C[C@@H](O)[C@H](N)C(=O)O; Hyp = O=C(O)[C@@H]1C[C@@H](O)CN1

Assays:
OATP1B3 [1] = biological target: T1, OATP1B3 (Homo sapiens, UniProt Q9NPD5); conditions: IC50, OATP1B3 [X10], mean ± SD (n = 3)
T1 sequence (Q9NPD5 1-702): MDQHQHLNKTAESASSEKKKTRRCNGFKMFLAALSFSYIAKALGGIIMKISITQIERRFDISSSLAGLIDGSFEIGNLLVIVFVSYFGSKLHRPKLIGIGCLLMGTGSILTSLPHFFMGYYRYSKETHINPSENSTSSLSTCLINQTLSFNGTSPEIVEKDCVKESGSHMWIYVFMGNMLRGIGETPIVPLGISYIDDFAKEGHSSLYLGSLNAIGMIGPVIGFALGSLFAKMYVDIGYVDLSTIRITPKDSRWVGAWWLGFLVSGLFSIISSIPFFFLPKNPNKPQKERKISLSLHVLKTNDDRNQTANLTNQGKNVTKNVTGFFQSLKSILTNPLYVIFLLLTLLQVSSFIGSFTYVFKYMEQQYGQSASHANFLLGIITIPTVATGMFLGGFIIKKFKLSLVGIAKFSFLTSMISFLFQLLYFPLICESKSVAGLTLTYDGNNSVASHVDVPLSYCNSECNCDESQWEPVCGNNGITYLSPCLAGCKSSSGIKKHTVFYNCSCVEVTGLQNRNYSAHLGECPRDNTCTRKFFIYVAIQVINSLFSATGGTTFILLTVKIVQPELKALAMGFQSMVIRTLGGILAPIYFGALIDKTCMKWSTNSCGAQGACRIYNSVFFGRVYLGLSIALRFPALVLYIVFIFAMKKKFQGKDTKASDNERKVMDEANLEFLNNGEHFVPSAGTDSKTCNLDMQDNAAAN

ALDH = assay type: in vitro ADME; conditions: human, pooled human liver cytosol
UGT2B15 = biological target: T2, UGT2B15 (Homo sapiens, UniProt P54855); assay type: in vitro ADME
T2 sequence (P54855 24-530): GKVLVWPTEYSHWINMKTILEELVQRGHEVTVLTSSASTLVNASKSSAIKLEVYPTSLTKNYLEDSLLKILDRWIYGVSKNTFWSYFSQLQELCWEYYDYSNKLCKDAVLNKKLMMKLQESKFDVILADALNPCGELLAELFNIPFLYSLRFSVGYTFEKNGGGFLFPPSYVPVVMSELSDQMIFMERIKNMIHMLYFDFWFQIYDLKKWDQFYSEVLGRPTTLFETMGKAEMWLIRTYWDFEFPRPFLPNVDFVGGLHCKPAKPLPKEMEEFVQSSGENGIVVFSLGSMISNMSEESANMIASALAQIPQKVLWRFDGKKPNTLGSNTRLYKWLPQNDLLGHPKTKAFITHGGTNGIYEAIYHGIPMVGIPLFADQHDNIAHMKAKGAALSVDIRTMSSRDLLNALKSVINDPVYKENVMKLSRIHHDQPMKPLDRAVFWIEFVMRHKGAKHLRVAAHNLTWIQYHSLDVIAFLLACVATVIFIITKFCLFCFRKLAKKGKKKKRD

OATP1B3 [2] = biological target: T1, OATP1B3; conditions: antibiotic as perpetrator, salvianolic acid B (X10) as victim; (Cmax × fu-p × R)/IC50
OATP1B3 [3] = biological target: T1, OATP1B3; test: in vitro
OAT2 = biological target: T3, OAT2 (Homo sapiens, UniProt Q9Y694); test: OAT2 inhibition by antibiotics, transfected HEK293 cells, tanshinol as substrate; assay type: in vitro ADME; conditions: for inhibition at 100 µM: HEK293, read-out: Inhibition of OAT2
T3 sequence (Q9Y694 1-546 isoform Q9Y694-2): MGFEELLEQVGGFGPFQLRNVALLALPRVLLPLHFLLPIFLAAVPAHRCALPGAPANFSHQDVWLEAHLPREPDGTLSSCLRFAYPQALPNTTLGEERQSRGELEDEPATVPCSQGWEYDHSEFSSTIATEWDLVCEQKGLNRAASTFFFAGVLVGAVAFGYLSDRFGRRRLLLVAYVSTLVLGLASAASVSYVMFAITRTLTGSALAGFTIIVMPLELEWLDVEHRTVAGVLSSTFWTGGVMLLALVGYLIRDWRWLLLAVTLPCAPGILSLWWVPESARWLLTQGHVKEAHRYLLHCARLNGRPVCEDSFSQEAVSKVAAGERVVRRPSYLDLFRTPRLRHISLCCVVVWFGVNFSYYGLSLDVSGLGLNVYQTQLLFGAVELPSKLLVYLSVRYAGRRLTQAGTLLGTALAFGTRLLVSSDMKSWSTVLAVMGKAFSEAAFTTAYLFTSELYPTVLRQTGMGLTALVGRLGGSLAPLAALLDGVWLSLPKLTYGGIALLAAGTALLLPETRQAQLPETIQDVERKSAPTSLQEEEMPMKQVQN

OAT1 = biological target: T4, OAT1 (Homo sapiens, UniProt Q4U2R8); test: OAT1 inhibition by antibiotics, transfected HEK293 cells, tanshinol as substrate; conditions: for inhibition at 100 μmol/L: human
T4 sequence (Q4U2R8 1-563): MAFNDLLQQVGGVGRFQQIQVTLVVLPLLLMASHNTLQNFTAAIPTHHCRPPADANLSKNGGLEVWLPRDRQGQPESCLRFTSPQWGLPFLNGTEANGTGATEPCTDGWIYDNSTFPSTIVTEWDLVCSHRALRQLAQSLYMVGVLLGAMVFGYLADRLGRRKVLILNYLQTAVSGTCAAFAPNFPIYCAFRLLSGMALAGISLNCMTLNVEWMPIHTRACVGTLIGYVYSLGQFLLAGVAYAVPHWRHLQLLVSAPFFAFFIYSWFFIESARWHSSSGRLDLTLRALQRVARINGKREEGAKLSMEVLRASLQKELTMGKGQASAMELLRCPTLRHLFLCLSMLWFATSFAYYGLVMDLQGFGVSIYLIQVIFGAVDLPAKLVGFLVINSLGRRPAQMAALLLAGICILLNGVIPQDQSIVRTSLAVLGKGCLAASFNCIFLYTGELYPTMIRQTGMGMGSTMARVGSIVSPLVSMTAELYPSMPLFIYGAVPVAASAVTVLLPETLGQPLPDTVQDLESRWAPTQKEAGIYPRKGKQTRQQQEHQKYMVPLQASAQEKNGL

| Structure (SMILES) | IC50 (OATP1B3 [1]) | Inhibition DDI index, OATP1B3 (OATP1B3 [2]) | inhibition at 100 μmol/L (OATP1B3 [3]) | IC50 (UGT2B15) | other results |
| --- | --- | --- | --- | --- | --- |
| CO[C@@]1(NC(=O)Cc2cccs2)C(=O)N2C(C(=O)O)=C(COC(N)=O)CS[C@@H]21 [A20, cefoxitin] | 26 ± 19 µM | 2.81 |  | 57 ± 11 µM | IC50 (ALDH): 983 ± 117 µM; inhibition at 1000 μmol/L (ALDH): 56 to 88%; Inhibition DDI index, UGT2B15 (UGT2B15; antibiotic as perpetrator, senkyunolide I (X5) as victim, (Cmax × fu-p × R)/IC50): 1.28; inhibition at 1000 μmol/L (UGT2B15; human, cDNA-expressed UGT2B15): ≥ 90%; inhibition at 1000 μmol/L (OATP1B3 [3]): > 90% |
| C[C@H]1COc2c(N3CCN(C)CC3)c(F)cc3c(=O)c(C(=O)O)cn1c23 [A31, levofloxacin] |  |  |  |  | IC50 (OAT2): 50 ± 9 µM; inhibition at 100 µM (OAT2): 60 to 84%; Inhibition DDI index, OAT2 (OAT2; antibiotic as perpetrator, tanshinol (X8) as victim, (Cmax × fu-p × R)/IC50): 0.36 |
| CCCCCOc1ccc(-c2cc(-c3ccc(C(=O)N[C@H]4C[C@@H](O)[C@@H](O)NC(=O)[C@@H]5[C@@H](O)[C@@H](C)CN5C(=O)[C@H]([C@H](O)CC(N)=O)NC(=O)[C@H]([C@H](O)[C@@H](O)c5ccc(O)c(OS(=O)(=O)O)c5)NC(=O)[C@@H]5C[C@@H](O)CN5C(=O)[C@H]([C@@H](C)O)NC4=O)cc3)no2)cc1 [A40, micafungin] (X1-[Orn(4R-OH,5R-OH)]T[Hyp][hTyr(3S-OH,4S-OH,3'-OSO3H)][Gln(3R-OH)][Pro(3S-OH,4S-Me)]; lactam 1-C) | 3 ± 1 µM |  | > 90% | 3 µM | IC50 (OAT2): 26 ± 2 µM; inhibition at 100 µM (OAT2): > 90%; IC50 (OAT1): 43 ± 4 µM; inhibition at 100 μmol/L (OAT1): ≥ 90%; inhibition at 100 μmol/L (UGT2B15; human, cDNA-expressed UGT2B15): ≥ 90% |
| CC[C@H](C)C[C@H](C)CCCCCCCCC(=O)N[C@H]1C[C@@H](O)[C@@H](NCCN)NC(=O)[C@@H]2[C@@H](O)CCN2C(=O)[C@H]([C@H](O)CCN)NC(=O)[C@H]([C@H](O)[C@@H](O)c2ccc(O)cc2)NC(=O)[C@@H]2C[C@@H](O)CN2C(=O)[C@H]([C@@H](C)O)NC1=O [A41, caspofungin] | 1 µM | 0.35 | > 90% | 39 ± 2 µM | IC50 (OAT1): 7 ± 2 µM; inhibition at 100 μmol/L (OAT1): 63 to 88%; inhibition at 100 μmol/L (UGT2B15; human, cDNA-expressed UGT2B15): 60 to 88% |
| CCC(C)n1ncn(-c2ccc(N3CCN(c4ccc(OCC5COC(Cn6cncn6)(c6ccc(Cl)cc6Cl)O5)cc4)CC3)cc2)c1=O (stereo not drawn) [A44, itraconazole] | 4 ± 1 µM |  | 64 to 88% |  |  |

Further lines, with some results ahead:

| IC50 (OATP1B3 [1]) | Inhibition DDI index, OATP1B3 (OATP1B3 [2]) | inhibition at 100 μmol/L (OATP1B3 [3]) | Structure (SMILES) | IC50 (UGT2B15) | other results |
| --- | --- | --- | --- | --- | --- |
| 17 ± 2 µM |  | 64 to 88% | COc1c(N2C[C@@H]3CCCN[C@@H]3C2)c(F)cc2c(=O)c(C(=O)O)cn(C3CC3)c12 [A33, moxifloxacin] |  |  |
| 3 ± 1 µM | 0.35–1.04 | > 90% | CC[C@H]1OC(=O)[C@H](C)[C@@H](O[C@H]2C[C@@](C)(OC)[C@@H](O)[C@H](C)O2)[C@H](C)[C@@H](O[C@@H]2O[C@H](C)C[C@H](N(C)C)[C@H]2O)[C@](C)(O)C[C@@H](C)C(=O)[C@H](C)[C@@H](O)[C@]1(C)O [A34, erythromycin] |  |  |
| 2 µM |  | > 90% | CO[C@H]1/C=C/O[C@@]2(C)Oc3c(C)c(O)c4c(O)c(c(/C=N/N5CCN(C)CC5)c(O)c4c3C2=O)NC(=O)/C(C)=C\C=C\[C@H](C)[C@H](O)[C@@H](C)[C@@H](O)[C@@H](C)[C@H](OC(C)=O)[C@@H]1C [A39, rifampin] |  |  |
| 1 µM |  | 64 to 88% | C[C@@H]1[C@H](O)[C@@H](C)/C=C/C=C/C=C/C=C/C=C/C=C/C=C/[C@H](O[C@@H]2O[C@H](C)[C@@H](O)[C@H](N)[C@@H]2O)C[C@@H]2O[C@](O)(C[C@@H](O)C[C@@H](O)[C@H](O)CC[C@@H](O)C[C@@H](O)CC(=O)O[C@H]1C)C[C@H](O)[C@H]2C(=O)O [A42, amphotericin B] |  | IC50 (ALDH): 87 ± 9 µM; inhibition at 100 μmol/L (ALDH): 56 to 88% |
